Test results published in patent publication US5733908A, “Tetracyclic 1,4-oxazine compounds” (Adir Et Compagnie, priority 1995, dated 1998).

Tested on: male Wistar rats, hypothermia induced by the D3 dopaminergic agonist 7-OH-DPAT
Test: Hypothermia in the rat induced by the D3 agonist 7-OH-DPAT (reversal test)
Type: in vivo
Settings: for ΔT°C. (rectal temperature vs base values): measured 30 min after, mean ± sem, n ≥ 5
Source text: That selectivity makes the compounds of the present invention valuable especially for use as medicaments that act on the dopaminergic system without causing the undesirable effects of D2 ligands.
In vivo: by the capacity of the products of the invention to modulate hypothermia induced in the rat by the D3 dopaminergic agonist: 7-OH-DPAT.
1.2 In vivo - Hypothermia in the rat
The tests were carded out on male Wistar rats weighing 200-250 g placed in individual cages with free access to food and water. The products were dissolved in distilled water to which several drops of lactic acid are added. The injections were effected in a volume of 1.0 ml/kg by the subcutaneous route. The doses are expressed in terms of the base. The rectal temperature of the rats was recorded using a digital thermistoprobe (Millan et al, I.P.E.T., 1993, 264, p. 1364-1376). During a first period, the rats were injected with the compound to be tested or the carrier, and were then put back in their cages for 30 minutes. The rats were then given an injection of 7-OH-DPAT (0.16 mg/kg) and were placed in their cages again. Thirty minutes later, the rectal temperature was measured and the difference was determined by comparison with the base values (.increment.T° C.). The inhibitory dose (95 % confidence limits) for reducing the effect of the 7-OH-DPAT by 50 % was calculated according to the Finney method (Statistical Method in Biological Assays, 2nd ed., Hafner Publishing, New York, 1964).

SMILES	ED50 (Rattus norvegicus, sc, 7-OH-DPAT 0.16 mg/kg, Finney method, 95 % confidence limits in brackets, read-out: inhibitory dose (ID50) (95 % C.L.) for reducing the effect of 7-OH-DPAT by 50 %) [mg/kg]	ΔT°C. (rectal temperature vs base values) (injection 1: product 0.16 mg/kg s.c., injection 2: 7-OH-DPAT 0.16 mg/kg 30 min later) [°C]	ΔT°C. (rectal temperature vs base values) (injection 1: carrier, injection 2: 7-OH-DPAT 0.16 mg/kg s.c.) [°C]
CCCN1CCO[C@@H]2c3cc4c(cc3CC[C@H]21)CCS4 (relative stereo) [Example 2, Trans-3,4,4a,5,6,8,9,11b-octahydrothieno[2,3-b]-1,4-oxazino[3,2-h]-4-propyl-2H-naphthalene]	0.41	-1.48 ± 0.44	
CCCN(CCC)C1CCc2ccc(O)cc2C1 (stereo not drawn) [Example 7-OH-DPAT, reference compound]			-1.66 ± 0.07
